{"source": "patent US20220226357A1", "about": "“METHODS FOR TREATING NEURODEGENERATIVE DISORDERS” (THOMAS JEFFERSON UNIVERSITY, priority 2019, published 2022)", "system": "AAV-A53T α-synuclein rat model", "experiment": "Insoluble pSer129 α-Syn immunofluorescence in SN after proteinase K", "assay_type": "in vivo", "conditions": "GM1 30 mg/kg/day i.p. for 2 wks, starting 24 hrs after AAV-A53T", "source_text": "However, GM1 administration may affect α-Syn phosphorylation and aggregation in vivo. Some studies have reported that in vitro, GM1 and α-Syn interact, resulting in an absence of fibril formation and an increase in helical folding propensity, resulting in GM1-mediated protection against aggregation. […] It was proposed herein that a mechanism that underlies the ability of GM1 to reduce α-Syn-related neurotoxicity is that GM1 administration reduces α-Syn phosphorylation and thus aggregation, and toxicity, in vivo. […] Beginning 24 hours after AAV administration, some animals received daily i.p. injections of saline and others received daily i.p. injections of GM1 (30 mg/kg). Animals were euthanized 2 weeks following initiation of saline or GM1 administration. Brains were subsequently sectioned and SN sections were treated with proteinase K and then processed for pSer129 α-Syn immunofluorescence.", "note": "“Also recorded” adds a separate entry of the source.", "data": [{"substance": "GM1 ganglioside", "values": [{"measurement": "insoluble pSer129 α-Syn-positive cells and pSer129 α-Syn per cell in the SN, GM1 vs saline", "value": "significantly fewer pSer129 α-Syn-positive cells and less pSer129 α-Syn per cell; also recorded: fewer SN neurons expressing insoluble pSer129 and decreased pSer129 expression per neuron"}]}]}
